US20250051338A1, “TYK2 DEGRADERS AND USES THEREOF” (Kymera Therapeutics, Inc., priority 2021, published 2025)

Assays:
Format in all cases: cell-based
TYK2 [1] = target: T1, TYK2 (Homo sapiens, UniProt P29597); assay: TYK2 degradation MSD assay in human PBMC cells; design: endogenous in cells; host or cells: human PBMC; conditions: 4 to 24 hours incubation, read-out: TYK2 MSD DC50 rating in human PBMC
Method in brief: (§1)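 DC50 values reflect dose-dependent decrease of TYK2 protein, read by MSD after cells were exposed to compound (top 1 to 10 μM, 1:3, 9 doses) for 4 to 24 hours at 37° C.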

TYK2 [2] = target: T1, TYK2; assay: TYK2 degradation MSD assay in EBV-B cells; design: endogenous in cells; host or cells: EBV-B cells; conditions: 4 to 24 hours incubation, read-out: TYK2 MSD DC50 rating in EBV-B
Method in brief: as §1

TYK2 [3] = target: T1, TYK2; assay: TYK2 degradation MSD assay in OCI-LY10 cells; design: endogenous in cells; host or cells: EBV-B cells; conditions: 4 to 24 hours incubation, read-out: TYK2 MSD DC50 rating in OCI-LY10
Method in brief: as §1

T1 sequence (P29597 whole entry): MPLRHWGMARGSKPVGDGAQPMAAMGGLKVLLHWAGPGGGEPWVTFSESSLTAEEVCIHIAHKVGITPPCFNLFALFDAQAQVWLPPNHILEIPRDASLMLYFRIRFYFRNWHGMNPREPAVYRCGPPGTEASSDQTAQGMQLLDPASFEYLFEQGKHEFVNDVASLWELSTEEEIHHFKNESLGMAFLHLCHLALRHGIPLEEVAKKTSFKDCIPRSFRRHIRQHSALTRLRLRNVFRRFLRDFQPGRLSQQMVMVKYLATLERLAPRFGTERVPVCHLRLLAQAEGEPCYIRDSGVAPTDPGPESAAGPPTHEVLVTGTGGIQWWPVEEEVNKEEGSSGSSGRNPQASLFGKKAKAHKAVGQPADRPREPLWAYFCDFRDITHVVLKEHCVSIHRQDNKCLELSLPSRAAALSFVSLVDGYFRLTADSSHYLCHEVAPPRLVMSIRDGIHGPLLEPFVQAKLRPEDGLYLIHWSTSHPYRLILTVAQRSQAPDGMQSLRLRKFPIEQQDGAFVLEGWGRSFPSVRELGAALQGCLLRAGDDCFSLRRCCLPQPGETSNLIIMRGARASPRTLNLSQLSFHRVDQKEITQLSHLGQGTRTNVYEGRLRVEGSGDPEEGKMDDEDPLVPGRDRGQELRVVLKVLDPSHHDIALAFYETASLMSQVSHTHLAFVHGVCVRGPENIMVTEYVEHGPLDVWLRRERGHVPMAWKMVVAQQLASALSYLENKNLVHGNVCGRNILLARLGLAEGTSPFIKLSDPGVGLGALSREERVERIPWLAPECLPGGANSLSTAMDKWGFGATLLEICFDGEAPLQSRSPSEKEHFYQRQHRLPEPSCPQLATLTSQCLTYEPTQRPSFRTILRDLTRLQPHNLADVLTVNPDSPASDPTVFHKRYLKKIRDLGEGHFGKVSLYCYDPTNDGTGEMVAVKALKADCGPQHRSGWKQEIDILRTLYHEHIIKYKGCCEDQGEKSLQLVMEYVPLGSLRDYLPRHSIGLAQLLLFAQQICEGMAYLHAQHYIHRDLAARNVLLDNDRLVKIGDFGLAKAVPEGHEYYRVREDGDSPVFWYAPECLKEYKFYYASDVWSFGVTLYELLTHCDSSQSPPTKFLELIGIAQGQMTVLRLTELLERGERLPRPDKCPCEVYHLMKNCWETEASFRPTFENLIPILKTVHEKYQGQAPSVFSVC

SMILES | DC50 (TYK2 [1]) [nM] | DC50 (TYK2 [2]) [nM] | DC50 (TYK2 [3]) [nM]
CNc1cc(Nc2ccc(F)c(-c3ccc(Cc4ccc(-c5ccc6c(c5)n(C)c(=O)n6C5CCC(=O)NC5=O)cc4)cn3)c2OC)nn2c(C(=O)N[C@@H]3C[C@@H]3F)cnc12 (stereo partly drawn) [Example K648] | > 100 | > 100 | 1 to 10
CNc1cc(N2CCc3c(-c4cc(N5CCN([C@H]6CC[C@H](c7ccc8c(c7)n(C)c(=O)n8C7CCC(=O)NC7=O)CC6)CC5)ccn4)cccc32)nn2c(C(=O)NC3CC3F)cnc12 (stereo partly drawn) [Example K650, N-[(1R,2S)-2-fluorocyclopropyl]-8-(methylamino)-6-[4-(4-{4-[(1r,4r)-4-[1-(2,6-dioxopiperidin-3-yl)-3-methyl-2-oxo-1,3-benzodiazol-5-yl]cyclohexyl]piperazin-1-yl}pyridin-2-yl)-2,3-dihydroindol-1-yl]imidazo[1,2-b]pyridazine-3-carboxamide] | > 100 | > 100 | < 1
CNc1cc(N2CCc3c(-c4cc(N5CCN(c6ccc7c(c6)n(C)c(=O)n7C6CCC(=O)NC6=O)CC5)ccn4)cccc32)nn2c(C(=O)C[C@@H]3C[C@@H]3F)cnc12 (stereo partly drawn) [Example K652] | > 100 | > 100 | > 100
CNc1cc(N2CCc3c(-c4cc(N5CCN(c6cccc7c6n(C)c(=O)n7C6CCC(=O)NC6=O)CC5)ccn4)cccc32)nn2c(C(=O)N[C@@H]3C[C@@H]3F)cnc12 (stereo partly drawn) [Example K653] | > 100 | > 100 | > 100
CNc1cc(N2CCc3c(-c4cc(N5CCN(CC6CCN(c7cccc8c7n(C)c(=O)n8C7CCC(=O)NC7=O)CC6)CC5)ccn4)cccc32)nn2c(C(=O)NC3CC3F)cnc12 (stereo not drawn) [Example K656] | > 100 | > 100 | 1 to 10
CNc1cc(N2CCc3c(-c4cc(CN5CCN(c6ccc7c(c6)n(C)c(=O)n7C6CCC(=O)NC6=O)CC5)ccn4)cccc32)nn2c(C(=O)NC3CC3F)cnc12 (stereo not drawn) [Example K657] | > 100 | > 100 | < 1

The next lines start with the values.

DC50 (TYK2 [1]) [nM] | DC50 (TYK2 [2]) [nM] | DC50 (TYK2 [3]) [nM] | SMILES
> 100 | > 100 | 1 to 10 | CNc1cc(N2CCc3c(N4CCC(CN5CCC(C#Cc6cccc7c6n(C)c(=O)n7C6CCC(=O)NC6=O)CC5)CC4)cccc32)nn2c(C(=O)N[C@@H]3C[C@@H]3F)cnc12 (stereo partly drawn) [Example K635]
> 100 | > 100 | 1 to 10 | CNc1cc(N2CCc3c(-c4ccc(CN5CCN(c6cccc7c6n(C)c(=O)n7C6CCC(=O)NC6=O)CC5)cn4)cccc32)nn2c(C(=O)N[C@@H]3C[C@@H]3F)cnc12 (stereo partly drawn) [Example K637]
> 100 | > 100 | < 1 | CNc1cc(N2CCc3c(N4CCC(CN5CCN(c6ccc7c(c6)n(C)c(=O)n7C6CCC(=O)NC6=O)CC5)CC4)cccc32)nn2c(C(=O)N[C@@H]3C[C@@H]3F)cnc12 (stereo partly drawn) [Example K638]
> 100 | > 100 | > 100 | CNc1cc(Nc2cccc(C3CCN(CCc4cccc5c4n(C)c(=O)n5C4CCC(=O)NC4=O)CC3)c2)nn2c(C(=O)N[C@@H]3C[C@@H]3F)cnc12 (stereo partly drawn) [Example K641]
> 100 | > 100 | 1 to 10 | Cn1c(=O)n(C2CCC(=O)NC2=O)c2ccc(-c3ccc(N4CCN(Cc5ccc(-c6cccc(Nc7nn8c(C(=O)N[C@@H]9C[C@@H]9F)cnc8c8c7OCCN8)c6Cl)nc5)CC4)cc3)cc21 (stereo partly drawn) [Example K642]
> 100 | > 100 | < 1 | CNc1cc(N2CCc3c(N4CCN(C5CCN(c6ccc7c(c6)n(C)c(=O)n7C6CCC(=O)NC6=O)CC5)CC4)cccc32)nn2c(C(=O)N[C@@H]3C[C@@H]3F)cnc12 (stereo partly drawn) [Example K645]
> 100 | > 100 | < 1 | CNc1cc(N2CCc3c(N4CCN(C5CC6(CCN(c7ccc8c(c7)n(C)c(=O)n8C7CCC(=O)NC7=O)CC6)C5)CC4)cccc32)nn2c(C(=O)N[C@@H]3C[C@@H]3F)cnc12 (stereo partly drawn) [Example K646]
> 100 | > 100 | > 100 | CNc1cc(Nc2cccc(C3CCN(C(=O)Cc4cccc5c4n(C)c(=O)n5C4CCC(=O)NC4=O)CC3)c2)nn2c(C(=O)N[C@@H]3C[C@@H]3F)cnc12 (stereo partly drawn) [Example K647]
